From US20120184545A1, “HEART-SLOWING DRUG CONTAINING SHORT-ACTING BETA-BLOCKER AS TEH ACTIVE INGREDIENT” (ONO PHARMACEUTICAL CO., LTD., priority 2003, published 2012)
Where a name gives a salt, the structure may show the parent alone.

Key:
[1] = cited from earlier work
angina pectoris patients = assay: efficacy and safety of landiolol hydrochloride in coronary angiography using MSCT; format: in vivo, human
Description: Evaluation of efficacy and safety of landiolol hydrochloride to the coronary angiography ability using MSCT:
In the imaging of MSCT, LightSpeed Ultra 16 (16-slices MSCT, manufactured by GE medical systems) was used.
As a Workstation, Advantage Workstation AW 4.2 (manufactured by GE Medical Systems) was used.
As an imaging analysis soft, CardIQ Analysis II manufactured by GE Medical Systems was used.
As contrast media, iomeprol 350 mgI/ml (brand name: Iomeron 350, manufactured by Eisai Co., Ltd., was used.
To four angina pectoris patients, was intravenously administered landiolol hydrochloride swiftly over a period of 1 minute (0.063 mg/kg/minute), followed by a sustained intravenous administration over a period of 10 minutes (0.02 mg/kg/minute).
The contrast media were administered 10 minutes after confirming that the heart rate was slowed down. The imaging timing was determined by a test injection method using contrast media. As a result of swift administration of iomeprol (10 ml) and saline (20 ml) sequentially, it took approximately average of 16 seconds for iomeprol to reach heart. Afterwards, iomeprol (70 ml) and saline (20 ml) were swiftly administered sequentially and in time with the timing when iomeprol reached heart, MSCT imaging was started.
Three-dimensional overall figures of coronary artery were grasped with (A), and then followed by evaluation of the lesion site with (B) and (C), optionally followed by addition of an orthogonal cross-section imaging of a coronary artery for further confirmation.
To the above four angina pectosis patients, landiolol hydrochloride was administered. […] The inhibition rate (%) was calculated by {(post-value/(pre-value)×100−100}.

Compound	half life in blood [1]	image quality of coronary angiography by MSCT (angina pectoris patients; after administration of landiolol hydrochloride, iomeprol contrast medium, 16-slices MSCT)	lowering of the blood pressure (safety) (angina pectoris patients; angina pectoris patients, after administration)	Heart rate after administration (angina pectoris patients; four angina pectoris patients (n = 4), i.v. 0.063 mg/kg/minute for 1 minute, then 0.02 mg/kg/minute for 10 minutes, before administration 61.0) [min⁻¹]	Systolic blood pressure after administration (angina pectoris patients; four angina pectoris patients (n = 4), i.v. 0.063 mg/kg/minute for 1 minute, then 0.02 mg/kg/minute for 10 minutes, before administration 173.3) [mmHg]
COC(=O)CCc1ccc(OCC(O)CNC(C)C)cc1 (centres unmarked) [esmolol hydrochloride, Methyl 3-[4-[2-hydroxy-3-(isopropylamino)propoxy]phenyl]propionic acid hydrochloride]	approximately 9 minutes				
CC1(C)OC[C@@H](COC(=O)CCc2ccc(OC[C@@H](O)CNCCNC(=O)N3CCOCC3)cc2)O1 [landiolol hydrochloride, (−)-[(S)-2,2-dimethyl-1,3-dioxolan-4-yl]methyl-3-[4-[(S)-2-hydroxy-3-(2-morpholinocarbonylamino)ethylamino]propoxy]phenylpropionic acid hydrochloride]		extremely sharp	no excessive lowering of the blood pressure was found	54.8	161.8
